According to patent US20250114374A1, “BCL-2 INHIBITORS” (Newave Pharmaceutical Inc., priority 2021, published 2025):
pIC50: −log10 of the molar value. Where two headings read alike, the source gives them in different places.

Tested on: RS4; 11 with G101V mutation
Test: In vitro anti-proliferation assay (ATPlite luminescence) in BCL-2-dependent ALL cell line RS4;11 with G101V mutation
Assay type: cell-based
Conditions: read-out: RS411-G101V IC50
Method in brief: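 RS4;11 G101V cells at about 1×10^4 per well were exposed to a range of compound concentrations for about 72 h in medium with 10% FBS. Cellular ATP was measured by ATPlite luminescence after lysis, and IC50 was derived from the dose-response.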

[1] = cellular anti-proliferative IC50, about 72 hours, medium with 10% FBS, ATPlite

Question: With Cc1ccccc1[C@@H]1CN([C@H]2CCOc3c(F)cc(F)cc32)CCN1C1CC2(CCN(c3ccc(C(=O)NS(=O)(=O)c4cc5c(c([N+](=O)[O-])c4)N[C@H](C4CCOCC4)CO5)c(N4c5cc6cc[nH]c6nc5O[C@H]5COCC[C@@H]54)c3)CC2)C1 [Example 197, 4-(2-((R)-4-((S)-6,8-difluorochroman-4-yl)-2-(o-tolyl)piperazin-1-yl)-7-azaspiro[3.5]nonan-7-yl)-N-(((R)-5-nitro-3-(tetrahydro-2H-pyran-4-yl)-3,4-dihydro-2H-benzo[b][1,4]oxazin-7-yl)sulfonyl)-2-((5aS,9aR)-6,7,9,9a-tetrahydro-1H-pyrano[3,4-b]pyrrolo[3′,2′:5,6]pyrido[3,2-e][1,4]oxazin-5(5aH)-yl)benzamide] as the compound, how does the pIC50 (Homo sapiens, RS4-11, 72 h) read?
Answer: 6.48

Question: With Cc1ccccc1[C@@H]1CN([C@@H]2CCOc3c(F)cc(F)cc32)CCN1C1CC2(CCN(c3ccc(C(=O)NS(=O)(=O)c4cc5c(c([N+](=O)[O-])c4)N[C@H](C4CCOCC4)CO5)c(N4c5cc6cc[nH]c6nc5O[C@H]5COCC[C@@H]54)c3)CC2)C1 [Example 198, 4-(2-((R)-4-((R)-6,8-difluorochroman-4-yl)-2-(o-tolyl)piperazin-1-yl)-7-azaspiro[3.5]nonan-7-yl)-N-(((R)-5-nitro-3-(tetrahydro-2H-pyran-4-yl)-3,4-dihydro-2H-benzo[b][1,4]oxazin-7-yl)sulfonyl)-2-((5aS,9aR)-6,7,9,9a-tetrahydro-1H-pyrano[3,4-b]pyrrolo[3′,2′:5,6]pyrido[3,2-e][1,4]oxazin-5(5aH)-yl)benzamide] as the compound, how does the pIC50 (Homo sapiens, RS4-11, 72 h) read?
Answer: 6.84

Question: Cc1ccccc1[C@@H]1CN(C2CCC(C)(O)CC2)CCN1C1CC2(CCN(c3ccc(C(=O)NS(=O)(=O)c4cc5c(c([N+](=O)[O-])c4)N[C@H](C4CCOCC4)CO5)c(N4c5cc6cc[nH]c6nc5O[C@H]5COCC[C@@H]54)c3)CC2)C1 (stereo partly drawn) [Example 199, 4-(2-((R)-4-((1r,4R)-4-hydroxy-4-methylcyclohexyl)-2-(o-tolyl)piperazin-1-yl)-7-azaspiro[3.5]nonan-7-yl)-N-(((R)-5-nitro-3-(tetrahydro-2H-pyran-4-yl)-3,4-dihydro-2H-benzo[b][1,4]oxazin-7-yl)sulfonyl)-2-((5aS,9aR)-6,7,9,9a-tetrahydro-1H-pyrano[3,4-b]pyrrolo[3′,2′:5,6]pyrido[3,2-e][1,4]oxazin-5(5aH)-yl)benzamide] was tested. Which pIC50 [1] did it give?
Answer: 7.30

Question: With Cc1ccccc1[C@@H]1CN(C2CCC(C)(O)CC2)CCN1C1CC2(CCN(c3ccc(C(=O)NS(=O)(=O)c4cc5c(c([N+](=O)[O-])c4)N[C@H](C4CCOCC4)CO5)c(N4c5cc6cc[nH]c6nc5O[C@H]5COCC[C@@H]54)c3)CC2)C1 (stereo partly drawn) [Example 200, 4-(2-((R)-4-((1s,4S)-4-hydroxy-4-methylcyclohexyl)-2-(o-tolyl)piperazin-1-yl)-7-azaspiro[3.5]nonan-7-yl)-N-(((R)-5-nitro-3-(tetrahydro-2H-pyran-4-yl)-3,4-dihydro-2H-benzo[b][1,4]oxazin-7-yl)sulfonyl)-2-((5aS,9aR)-6,7,9,9a-tetrahydro-1H-pyrano[3,4-b]pyrrolo[3′,2′:5,6]pyrido[3,2-e][1,4]oxazin-5(5aH)-yl)benzamide] as the compound, how does the pIC50 [1] read?
Answer: 7.08

Question: Cc1ccccc1[C@@H]1CN(C2CCN(C3CCOCC3)CC2)CCN1C1CC2(CCN(c3ccc(C(=O)NS(=O)(=O)c4cc5c(c([N+](=O)[O-])c4)N[C@H](C4CCOCC4)CO5)c(N4c5cc6cc[nH]c6nc5O[C@H]5COCC[C@@H]54)c3)CC2)C1 [Example 201, 2-[(3R,8S)-2,5-dioxa-9,15,17-triazatetracyclo[8.7.0.0^{3,8}.0^{12,16}]heptadeca-1(10),11,13,16-tetraen-9-yl]-4-{2-[(2R)-2-(2-methylphenyl)-4-[1-(oxan-4-yl)piperidin-4-yl]piperazin-1-yl]-7-azaspiro[3.5]nonan-7-yl}-N-[(3R)-5-nitro-3-(oxan-4-yl)-3,4-dihydro-2H-1,4-benzoxazin-7-ylsulfonyl]benzamide] was tested. Which pIC50 [1] did it give?
Answer: 6.63

Question: How did the pIC50 [1] turn out when Cc1ccccc1[C@@H]1CN(C2CCC3(CCOCC3)CC2)CCN1C1CC2(CCN(c3ccc(C(=O)NS(=O)(=O)c4cc5c(c([N+](=O)[O-])c4)N[C@H](C4CCOCC4)CO5)c(N4c5cc6cc[nH]c6nc5O[C@H]5COCC[C@@H]54)c3)CC2)C1 (stereo partly drawn) [Example 202, 2-[(3R,8S)-2,5-dioxa-9,15,17-triazatetracyclo[8.7.0.0^{3,8}.0^{12,16}]heptadeca-1(10),11,13,16-tetraen-9-yl]-4-{2-[(2R)-2-(2-methylphenyl)-4-{3-oxaspiro[5.5]undecan-9-yl}piperazin-1-yl]-7-azaspiro[3.5]nonan-7-yl}-N-[(3R)-5-nitro-3-(oxan-4-yl)-3,4-dihydro-2H-1,4-benzoxazin-7-ylsulfonyl]benzamide] was run?
Answer: 7.82

Question: With Cc1ccccc1[C@@H]1CN(C2CCC(N3CCOC[C@@H]3C)CC2)CCN1C1CC2(CCN(c3ccc(C(=O)NS(=O)(=O)c4cc5c(c([N+](=O)[O-])c4)N[C@H](C4CCOCC4)CO5)c(N4c5cc6cc[nH]c6nc5O[C@H]5COCC[C@@H]54)c3)CC2)C1 (stereo partly drawn) [Example 203, 4-(2-((R)-4-((1S,4R)-4-((S)-3-methylmorpholino)cyclohexyl)-2-(o-tolyl)piperazin-1-yl)-7-azaspiro[3.5]nonan-7-yl)-N-(((R)-5-nitro-3-(tetrahydro-2H-pyran-4-yl)-3,4-dihydro-2H-benzo[b][1,4]oxazin-7-yl)sulfonyl)-2-((5aS,9aR)-6,7,9,9a-tetrahydro-1H-pyrano[3,4-b]pyrrolo[3′,2′:5,6]pyrido[3,2-e][1,4]oxazin-5(5aH)-yl)benzamide] as the compound, how does the pIC50 [1] read?
Answer: 7.16

Question: With Cc1ccccc1[C@@H]1CN(C2CCC(N3CCOC[C@@H]3C)CC2)CCN1C1CC2(CCN(c3ccc(C(=O)NS(=O)(=O)c4cc5c(c([N+](=O)[O-])c4)N[C@H](C4CCOCC4)CO5)c(N4c5cc6cc[nH]c6nc5O[C@H]5COCC[C@@H]54)c3)CC2)C1 (stereo partly drawn) [Example 204, 4-(2-((R)-4-((1R,4S)-4-((S)-3-methylmorpholino)cyclohexyl)-2-(o-tolyl)piperazin-1-yl)-7-azaspiro[3.5]nonan-7-yl)-N-(((R)-5-nitro-3-(tetrahydro-2H-pyran-4-yl)-3,4-dihydro-2H-benzo[b][1,4]oxazin-7-yl)sulfonyl)-2-((5aS,9aR)-6,7,9,9a-tetrahydro-1H-pyrano[3,4-b]pyrrolo[3′,2′:5,6]pyrido[3,2-e][1,4]oxazin-5(5aH)-yl)benzamide] as the compound, how does the pIC50 [1] read?
Answer: 7.56

Question: Cc1ccccc1[C@@H]1CN(Cc2cnc(N3CCOC[C@@H]3C)c(C)c2)CCN1C1CC2(CCN(c3ccc(C(=O)NS(=O)(=O)c4cc5c(c([N+](=O)[O-])c4)N[C@H](C4CCOCC4)CO5)c(N4c5cc6cc[nH]c6nc5O[C@H]5COCC[C@@H]54)c3)CC2)C1 [Example 205, 2-[(3R,8S)-2,5-dioxa-9,15,17-triazatetracyclo[8.7.0.0^{3,8}.0^{12,16}]heptadeca-1(10),11,13,16-tetraen-9-yl]-4-{2-[(2R)-4-({5-methyl-6-[(3S)-3-methylmorpholin-4-yl]pyridin-3-yl}methyl)-2-(2-methylphenyl)piperazin-1-yl]-7-azaspiro[3.5]nonan-7-yl}-N-[(3R)-5-nitro-3-(oxan-4-yl)-3,4-dihydro-2H-1,4-benzoxazin-7-ylsulfonyl]benzamide] was tested. Which pIC50 [1] did it give?
Answer: 7.67

Question: With Cc1ccccc1[C@@H]1CN(Cc2cnc(N3CCOC[C@@H]3C)c(C(F)(F)F)c2)CCN1C1CC2(CCN(c3ccc(C(=O)NS(=O)(=O)c4cc5c(c([N+](=O)[O-])c4)N[C@H](C4CCOCC4)CO5)c(N4c5cc6cc[nH]c6nc5O[C@H]5COCC[C@@H]54)c3)CC2)C1 [Example 206, 2-[(3R,8S)-2,5-dioxa-9,15,17-triazatetracyclo[8.7.0.0^{3,8}.0^{12,16}]heptadeca-1(10),11,13,16-tetraen-9-yl]-4-{2-[(2R)-4-({6-[(3S)-3-methylmorpholin-4-yl]-5-(trifluoromethyl)pyridin-3-yl}methyl)-2-(2-methylphenyl)piperazin-1-yl]-7-azaspiro[3.5]nonan-7-yl}-N-[(3R)-5-nitro-3-(oxan-4-yl)-3,4-dihydro-2H-1,4-benzoxazin-7-ylsulfonyl]benzamide] as the compound, how does the pIC50 [1] read?
Answer: 6.64

Question: How did the pIC50 [1] turn out when CC(C)Oc1ccccc1[C@@H]1CN(C2CCC(C)(O)CC2)CCN1C1CC2(CCN(c3ccc(C(=O)NS(=O)(=O)c4cc5c(c([N+](=O)[O-])c4)N[C@H](C4CCOCC4)CO5)c(N4c5cc6cc[nH]c6nc5O[C@H]5COCC[C@@H]54)c3)CC2)C1 (stereo partly drawn) [Example 207, 4-(2-((R)-4-((1r,4R)-4-hydroxy-4-methylcyclohexyl)-2-(2-isopropoxyphenyl)piperazin-1-yl)-7-azaspiro[3.5]nonan-7-yl)-N-(((R)-5-nitro-3-(tetrahydro-2H-pyran-4-yl)-3,4-dihydro-2H-benzo[b][1,4]oxazin-7-yl)sulfonyl)-2-((5aS,9aR)-6,7,9,9a-tetrahydro-1H-pyrano[3,4-b]pyrrolo[3′,2′:5,6]pyrido[3,2-e][1,4]oxazin-5(5aH)-yl)benzamide] was run?
Answer: 7.57

Question: How did the pIC50 [1] turn out when CC(C)Oc1ccccc1[C@@H]1CN(C2CCC3(CCOCC3)CC2)CCN1C1CC2(CCN(c3ccc(C(=O)NS(=O)(=O)c4cc5c(c([N+](=O)[O-])c4)N[C@H](C4CCOCC4)CO5)c(N4c5cc6cc[nH]c6nc5O[C@H]5COCC[C@@H]54)c3)CC2)C1 (stereo partly drawn) [Example 209, 2-[(3R,8S)-2,5-dioxa-9,15,17-triazatetracyclo[8.7.0.0^{3,8}.0^{12,16}]heptadeca-1(10),11,13,16-tetraen-9-yl]-4-{2-[(2R)-2-(2-isopropoxyphenyl)-4-{3-oxaspiro[5.5]undecan-9-yl}piperazin-1-yl]-7-azaspiro[3.5]nonan-7-yl}-N-[(3R)-5-nitro-3-(oxan-4-yl)-3,4-dihydro-2H-1,4-benzoxazin-7-ylsulfonyl]benzamide] was run?
Answer: 7.79
